Results taken from ChEMBL document CHEMBL1201862, “PubChem BioAssay data set” (2004).
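Briefly, cells in 96-well plates were exposed to five compound concentrations for 48 h, and endpoints were estimated by linear interpolation. GI50 = concentration required for 50% inhibition of growth.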 Calls of active or inactive are those of the source. Cut-off read from the data, not from the text of the source: active = GI50 up to about 1.1 µM and inactive = higher.

Legend:
Assay in all cases: NCI-60 cell line screen, 48 h
[1] = test system: EKVX
[2] = test system: OVCAR-8
[3] = test system: MDA-MB-231
[4] = test system: UACC-257
[5] = test system: HCC 2998
[6] = test system: SW-620
[7] = test system: NCI/ADR-RES
[8] = test system: RXF 393
[9] = test system: SK-MEL-28
[10] = test system: SK-MEL-5
[11] = test system: CAKI-1
[12] = test system: MCF7
[13] = test system: K562
[14] = test system: MDA-N
[15] = test system: SNB-19
[16] = test system: NCI-H460
[17] = test system: KM-20L2
[18] = test system: LXFL 529
[19] = test system: DMS-114
[20] = test system: SNB-78

Structure (SMILES)	GI50 [1]	GI50 [2]	GI50 [3]	GI50 [4]	GI50 [5]	GI50 [6]	GI50 [7]	GI50 [8]	GI50 [9]	GI50 [10]	GI50 [11]	GI50 [12]	GI50 [13]	GI50 [14]	GI50 [15]	GI50 [16]	GI50 [17]	GI50 [18]	GI50 [19]	GI50 [20]
O=C(Nc1ccc2nc(-c3ccccc3)cn2c1)Oc1ccccc1	80 µM (inactive)	59.7 µM (inactive)	> 100 µM (inactive)	36.1 µM (inactive)	25.2 µM (inactive)	48.6 µM (inactive)	33.8 µM (inactive)	0.893 µM (active)	> 100 µM (inactive)	59.7 µM (inactive)	97.9 µM (inactive)	35.4 µM (inactive)	34.6 µM (inactive)	14 µM (inactive)	73.6 µM (inactive)	33.1 µM (inactive)	–	–	–	–
CC1OC(OC2C(OC(=O)[C@]34CCC(C)(C)C[C@H]3C3=CC[C@@H]5[C@@]6(C)CC[C@H](OC7OC(C(=O)O)C(O)C(O)C7O)C(C)(C)[C@@H]6CC[C@@]5(C)[C@]3(C)C[C@H]4O)OCC(O)C2O)C(O)C(OC2OCC(O)(CO)C2O)C1OC1OCC(O)C(O)C1O (stereo partly drawn)	4.3 µM (inactive)	17.1 µM (inactive)	3.43 µM (inactive)	11.1 µM (inactive)	1.81 µM (inactive)	10.9 µM (inactive)	13.3 µM (inactive)	15.2 µM (inactive)	4.49 µM (inactive)	14.8 µM (inactive)	6.62 µM (inactive)	6.17 µM (inactive)	10.3 µM (inactive)	4.31 µM (inactive)	11 µM (inactive)	18.2 µM (inactive)	–	–	–	–
COc1cc2c(cc1OC)C(=O)N(c1ccc(OCCN3CCCC3)cc1)C2=O	> 100 µM (inactive)	> 100 µM (inactive)	> 100 µM (inactive)	> 100 µM (inactive)	> 100 µM (inactive)	> 100 µM (inactive)	> 100 µM (inactive)	> 100 µM (inactive)	> 100 µM (inactive)	> 100 µM (inactive)	> 100 µM (inactive)	> 100 µM (inactive)	> 100 µM (inactive)	> 100 µM (inactive)	> 100 µM (inactive)	> 100 µM (inactive)	–	–	–	–
Oc1cccc2c1NC1=C(CCC/C1=C\c1ccccc1)C2	> 100 µM (inactive)	> 100 µM (inactive)	–	57.9 µM (inactive)	49.3 µM (inactive)	> 100 µM (inactive)	–	–	> 100 µM (inactive)	> 100 µM (inactive)	–	–	59.6 µM (inactive)	–	> 100 µM (inactive)	57.1 µM (inactive)	52.6 µM (inactive)	89.5 µM (inactive)	67.8 µM (inactive)	–
CCOC(=O)C(C)(C)Oc1ccc2c(-c3ccc(Cl)cc3)c(-c3ccc(Cl)cc3)c(=O)oc2c1	> 100 µM (inactive)	> 100 µM (inactive)	–	> 100 µM (inactive)	> 100 µM (inactive)	> 100 µM (inactive)	–	93.8 µM (inactive)	> 100 µM (inactive)	98.2 µM (inactive)	–	–	> 100 µM (inactive)	–	> 100 µM (inactive)	> 100 µM (inactive)	> 100 µM (inactive)	> 100 µM (inactive)	> 100 µM (inactive)	–
C[C@@H](CO)OCOCc1ccccc1	–	–	–	> 100 µM (inactive)	> 100 µM (inactive)	> 100 µM (inactive)	–	> 100 µM (inactive)	> 100 µM (inactive)	> 100 µM (inactive)	> 100 µM (inactive)	–	> 100 µM (inactive)	–	> 100 µM (inactive)	> 100 µM (inactive)	–	> 100 µM (inactive)	> 100 µM (inactive)	> 100 µM (inactive)
COC(=O)C(=O)C(C(=O)C(=O)Nc1ccc([N+](=O)[O-])cc1)c1nc2ccccc2nc1O (stereo not drawn)	–	> 100 µM (inactive)	–	55.7 µM (inactive)	–	> 100 µM (inactive)	–	> 100 µM (inactive)	> 100 µM (inactive)	43.6 µM (inactive)	53.2 µM (inactive)	–	39.1 µM (inactive)	–	> 100 µM (inactive)	> 100 µM (inactive)	22.1 µM (inactive)	34.2 µM (inactive)	> 100 µM (inactive)	–
COc1ccc(C(C)NNC(=O)c2ccncc2)cc1OC (stereo not drawn)	> 100 µM (inactive)	> 100 µM (inactive)	> 100 µM (inactive)	> 100 µM (inactive)	> 100 µM (inactive)	> 100 µM (inactive)	> 100 µM (inactive)	> 100 µM (inactive)	> 100 µM (inactive)	> 100 µM (inactive)	> 100 µM (inactive)	> 100 µM (inactive)	> 100 µM (inactive)	> 100 µM (inactive)	> 100 µM (inactive)	> 100 µM (inactive)	–	–	–	–
CCCN1CC=C(c2cc(C(=O)OCC)[nH]c2-c2cc(C)no2)C1=O	> 100 µM (inactive)	> 100 µM (inactive)	> 100 µM (inactive)	> 100 µM (inactive)	> 100 µM (inactive)	> 100 µM (inactive)	> 100 µM (inactive)	> 100 µM (inactive)	> 100 µM (inactive)	> 100 µM (inactive)	> 100 µM (inactive)	> 100 µM (inactive)	> 100 µM (inactive)	> 100 µM (inactive)	> 100 µM (inactive)	> 100 µM (inactive)	–	–	–	–
